Assay results reported in ChEMBL document CHEMBL4325853, “Design, synthesis and antibacterial evaluation of 2,4-disubstituted-6-thiophenyl-pyrimidines” (Eur J Med Chem, 2019).
Converted amounts (≈) assume the structure as drawn. The source made the active and inactive calls. The rule behind the calls is not given here.

Experiments:
[1] = system: Escherichia coli; experiment: Antibacterial activity against Escherichia coli ATCC 25922 after 18 hrs by broth microdilution method; type: functional; conditions: ATCC 25922, 18 h
[2] = system: Staphylococcus aureus; experiment: Potency index, ratio of berberine MIC to test compound MIC for Staphylococcus aureus ATCC 29213; type: functional
[3] = system: Staphylococcus epidermidis; experiment: Antibacterial activity against Staphylococcus epidermidis ATCC 12228 after 18 hrs by broth microdilution method; type: functional; conditions: ATCC 12228, 18 h
[4] = system: Enterococcus faecium; experiment: Potency index, ratio of berberine MIC to test compound MIC for Enterococcus faecium ATCC 49624; type: functional
[5] = system: Enterococcus faecalis; experiment: Antibacterial activity against Enterococcus faecalis ATCC 29212 after 18 hrs by broth microdilution method; type: functional; conditions: ATCC 29212, 18 h
[6] = system: Enterococcus faecium; experiment: Antibacterial activity against Enterococcus faecium ATCC 49624 after 18 hrs by broth microdilution method; type: functional; conditions: ATCC 49624, 18 h
[7] = system: Bacillus subtilis; experiment: Antibacterial activity against Bacillus subtilis 168 after 18 hrs by broth microdilution method; type: functional; conditions: subsp. subtilis str. 168, 18 h
[8] = system: Enterococcus faecalis; experiment: Potency index, ratio of berberine MIC to test compound MIC for Enterococcus faecalis ATCC 29212; type: functional
[9] = system: Staphylococcus epidermidis; experiment: Potency index, ratio of berberine MIC to test compound MIC for Staphylococcus epidermidis ATCC 12228; type: functional
[10] = system: Staphylococcus aureus; experiment: Antibacterial activity against Staphylococcus aureus ATCC 29213 after 18 hrs by broth microdilution method; type: functional; conditions: ATCC 29213, 18 h
[11] = system: Enterococcus faecalis; experiment: Antibacterial activity against vancomycin-resistant Enterococcus faecalis ATCC 700221 after 18 hrs by broth microdilution method; type: functional; conditions: ATCC 700221, 18 h
[12] = system: Staphylococcus aureus; experiment: Antibacterial activity against methicillin-resistant Staphylococcus aureus ATCC 43300 after 18 hrs by broth microdilution method; type: functional; conditions: ATCC 43300, 18 h
[13] = system: Enterococcus faecalis; experiment: Antibacterial activity against vancomycin-resistant Enterococcus faecalis ATCC 51575 after 18 hrs by broth microdilution method; type: functional; conditions: ATCC 51575, 18 h
[14] = system: Staphylococcus aureus; experiment: Antibacterial activity against methicillin-resistant Staphylococcus aureus ATCC 33592 after 18 hrs by broth microdilution method; type: functional; conditions: ATCC 33592, 18 h
[15] = system: Staphylococcus aureus; experiment: Antibacterial activity against methicillin-resistant Staphylococcus aureus ATCC 33591 after 18 hrs by broth microdilution method; type: functional; conditions: ATCC 33591, 18 h
[16] = system: Staphylococcus aureus; experiment: Antibacterial activity against methicillin-resistant Staphylococcus aureus ATCC BAA41 after 18 hrs by broth microdilution method; type: functional; conditions: ATCC BAA41, 18 h
[17] = system: Staphylococcus aureus; experiment: Antibacterial activity against methicillin-resistant Staphylococcus aureus ATCC BAA1720 after 18 hrs by broth microdilution method; type: functional; conditions: ATCC BAA1720, 18 h
[18] = system: Staphylococcus aureus; experiment: Ratio of MIC for Staphylococcus aureus ATCC 29213 after and before 11 to 21 serial passages; type: functional
[19] = target: T1, Cell division protein FtsZ (Staphylococcus aureus) (UniProt P0A031); experiment: Inhibition of recombinant Staphylococcus aureus FtsZ polymerization at 8 ug/ml by 90 degree light scattering-based fluorescence spectrometric analysis
T1 sequence (whole entry): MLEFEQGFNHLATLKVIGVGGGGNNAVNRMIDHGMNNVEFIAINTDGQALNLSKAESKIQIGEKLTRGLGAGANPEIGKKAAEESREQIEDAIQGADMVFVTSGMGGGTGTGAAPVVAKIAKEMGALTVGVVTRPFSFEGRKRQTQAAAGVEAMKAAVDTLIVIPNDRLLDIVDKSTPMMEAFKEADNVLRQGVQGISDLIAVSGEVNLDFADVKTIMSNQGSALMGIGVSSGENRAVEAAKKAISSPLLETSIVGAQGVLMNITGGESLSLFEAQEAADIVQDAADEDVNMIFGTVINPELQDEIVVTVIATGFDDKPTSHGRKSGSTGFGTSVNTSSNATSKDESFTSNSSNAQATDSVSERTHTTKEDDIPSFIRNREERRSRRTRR

[20] = target: T1, Cell division protein FtsZ (Staphylococcus aureus); experiment: Inhibition of recombinant Staphylococcus aureus FtsZ GTPase activity assessed as reduction in inorganic phosphate formation after 30 mins by colorimetric method
[21] = system: Staphylococcus aureus; experiment: Antibacterial activity against Staphylococcus aureus ATCC 29213 after 10 passages by broth microdilution method; type: functional, organism-based

Structure (SMILES)	MIC90 [1] [µg/mL]	MIC90 [3] [µg/mL]	MIC90 [5] [µg/mL]	MIC90 [6] [µg/mL]	MIC90 [7] [µg/mL]	MIC90 [10] [µg/mL]	also measured
Fc1ccc(CN2CCCN(CCc3cc(-c4cccs4)nc(-c4ccncc4)n3)CC2)cc1	> 128	8 (≈ 16.9 µM)	16 (≈ 33.8 µM)	16 (≈ 33.8 µM)	8 (≈ 16.9 µM)	8 (≈ 16.9 µM)	Ratio [2]: 50 - 100; Ratio [4]: 50 - 100; Ratio [8]: 50 - 100; Ratio [9]: 50 - 100
Cc1nc(CCN2CCN(C(=O)OC(C)(C)C)CC2)cc(-c2cccs2)n1	> 192	> 192	> 192	> 192	> 192	> 192	
Cc1ccc(CN2CCN(CCc3cc(-c4cccs4)nc(C)n3)CC2)cc1	> 192	192 (≈ 489 µM)	> 192	> 192	192 (≈ 489 µM)	192 (≈ 489 µM)	
Cc1nc(CCN2CCCN(Cc3ccccc3F)CC2)cc(-c2cccs2)n1	> 192	192 (≈ 468 µM)	> 192	> 192	192 (≈ 468 µM)	192 (≈ 468 µM)	
Cc1nc(CCN2CCN(c3ccc(C(F)(F)F)cc3)CC2)cc(-c2cccs2)n1	> 192	> 192	> 192	> 192	> 192	> 192	
COc1ccc2cc3[n+](cc2c1OC)CCc1cc2c(cc1-3)OCO2 [BERBERINE]	> 192	96	> 192	> 192	128	128	MIC90 [11]: > 192 µg/mL; MIC90 [12]: 192 µg/mL; MIC90 [13]: > 192 µg/mL; MIC90 [14]: 192 µg/mL; MIC90 [15]: 192 µg/mL; MIC90 [16]: 192 µg/mL; MIC90 [17]: 192 µg/mL
Cc1nc(CCN2CCCN(Cc3ccc(F)cc3)CC2)cc(-c2cccs2)n1	> 192	128 (≈ 312 µM)	192 (≈ 468 µM)	192 (≈ 468 µM)	128 (≈ 312 µM)	128 (≈ 312 µM)	
Cc1nc(CCN2CCN(Cc3ccccc3)CC2)cc(-c2cccs2)n1	> 192	> 192	> 192	> 192	> 192	> 192	
Cc1nc(CCN2CCCN(Cc3ccc(C(C)C)cc3)CC2)cc(-c2cccs2)n1	128 (≈ 294 µM)	32 (≈ 73.6 µM)	64 (≈ 147 µM)	64 (≈ 147 µM)	64 (≈ 147 µM)	32 (≈ 73.6 µM)	Activity [18]: Active; inhibition [19]: Active; inhibition [20]: Dose-dependent effect; Activity [21]: Active
Fc1ccc(CN2CCCN(CCc3cc(-c4cccs4)nc(-c4ccncc4)n3)CC2)cc1F	128 (≈ 260 µM)	4 (≈ 8.14 µM)	8 (≈ 16.3 µM)	8 (≈ 16.3 µM)	4 (≈ 8.14 µM)	4 (≈ 8.14 µM)	Ratio [2]: 50 - 100; Ratio [4]: 50 - 100; Ratio [8]: 50 - 100; Ratio [9]: 50 - 100
Cc1nc(CCNCCN2CCOCC2)cc(-c2cccs2)n1	> 192	> 192	> 192	> 192	> 192	> 192	
Cc1nc(CCNCCN2CCCCC2)cc(-c2cccs2)n1	> 192	> 192	> 192	> 192	> 192	> 192	
Cc1nc(CCN2C[C@@H]3C[C@H]2CN3)cc(-c2cccs2)n1	> 192	> 192	> 192	> 192	> 192	> 192	
Cc1nc(-c2cccs2)cc([C@H]2CN3CC[C@H]2C[C@@H]3CNC(=O)CCCC(=O)O)n1	384 (≈ 896 µM)	192 (≈ 448 µM)	> 192	> 192	192 (≈ 448 µM)	192 (≈ 448 µM)	
Cc1nc(CCNCCN2CCCC2)cc(-c2cccs2)n1	> 192	> 192	> 192	> 192	> 192	> 192	
Cc1nc(CCN2CCCN(Cc3cccc(F)c3)CC2)cc(-c2cccs2)n1	> 192	128 (≈ 312 µM)	192 (≈ 468 µM)	192 (≈ 468 µM)	128 (≈ 312 µM)	128 (≈ 312 µM)	
Cc1nc(CCN2CCCN(Cc3ccc(C(C)(C)C)cc3)CC2)cc(-c2cccs2)n1	128 (≈ 285 µM)	32 (≈ 71.3 µM)	64 (≈ 143 µM)	64 (≈ 143 µM)	64 (≈ 143 µM)	32 (≈ 71.3 µM)	
Cc1nc(CCN2CCCN(Cc3ccccc3)CC2)cc(-c2cccs2)n1	> 192	192 (≈ 489 µM)	> 192	> 192	192 (≈ 489 µM)	192 (≈ 489 µM)	
Fc1cccc(CN2CCCN(CCc3cc(-c4cccs4)nc(-c4ccncc4)n3)CC2)c1	> 128	8 (≈ 16.9 µM)	16 (≈ 33.8 µM)	16 (≈ 33.8 µM)	8 (≈ 16.9 µM)	8 (≈ 16.9 µM)	Ratio [2]: 50 - 100; Ratio [4]: 50 - 100; Ratio [8]: 50 - 100; Ratio [9]: 50 - 100
Brc1ccc(CN2CCCN(CCc3cc(-c4cccs4)nc(-c4ccncc4)n3)CC2)cc1	128 (≈ 239 µM)	4 (≈ 7.48 µM)	8 (≈ 15 µM)	8 (≈ 15 µM)	4 (≈ 7.48 µM)	4 (≈ 7.48 µM)	Ratio [2]: 50 - 100; Ratio [4]: 50 - 100; Ratio [8]: 50 - 100; Ratio [9]: 50 - 100
Cc1nc(CCN2C[C@@H]3C[C@H]2CN3C(=O)OC(C)(C)C)cc(-c2cccs2)n1	> 192	> 192	> 192	> 192	> 192	> 192	
Cc1nc(CCN2CCNCC2)cc(-c2cccs2)n1	> 192	> 192	> 192	> 192	> 192	> 192	
Cc1nc(CCN2CCN(Cc3ccc(F)cc3)CC2)cc(-c2cccs2)n1	> 192	192 (≈ 484 µM)	> 192	> 192	192 (≈ 484 µM)	192 (≈ 484 µM)	
c1ccc(CN2CCCN(CCc3cc(-c4cccs4)nc(-c4ccncc4)n3)CC2)cc1	> 128	16 (≈ 35.1 µM)	32 (≈ 70.2 µM)	32 (≈ 70.2 µM)	16 (≈ 35.1 µM)	16 (≈ 35.1 µM)	Ratio [2]: 50 - 100; Ratio [4]: 50 - 100; Ratio [8]: 50 - 100; Ratio [9]: 50 - 100
Cc1nc(CCN2CCCN(Cc3ccc(F)c(F)c3)CC2)cc(-c2cccs2)n1	> 192	128 (≈ 299 µM)	128 (≈ 299 µM)	128 (≈ 299 µM)	128 (≈ 299 µM)	128 (≈ 299 µM)	
Cc1nc(CCN(C)CCN(C)Cc2ccccc2)cc(-c2cccs2)n1	> 192	> 192	> 192	> 192	> 192	> 192	
